US10658848B2, “Materials for use with aqueous redox flow batteries and related methods and systems” (Massachusetts Institute of Technology, priority 2014, dated 2020)
Marks after values point to notes of the source that are not given here.

Assay: Qualitative cyclic voltammetry of quinoxaline electrolytes
Assay type: physicochemical
Experimental: Quinoxaline electrochemical behavior was characterized in a number of aqueous electrolytes. […] All electrochemical measurements presented in this paper were performed using a Biologic VSP-300 potentiostat. Glassy carbon electrodes were used as working electrodes in voltammetry experiments and were polished using 0.05 μm alumina suspension before performing a new set of measurements. Solution resistances were measured prior to electrochemical experiments to be 5Ω. Due to small peak currents during CV (less than 1 mA), the maximum estimated iR drop was 5 mV. During qualitative CV experiments, a 75% solution resistance compensation (iR correction) was applied during the experiment to ensure high quality data in untested systems. Quantitative CV techniques were carried with no iR correction as the small potential offset was unlikely to affect experimental results. Additionally, no iR correction was applied during RDV experiments because analyses only considered the limiting RDV current, which is unaffected by ohmic losses. All potentials given herein are presented versus the reversible hydrogen electrode (RHE), unless otherwise stated. Experimental potentials were determined versus a calibrated Ag/AgCl reference electrode and converted to potentials versus RHE using the […] equation and the pH of the solution, measured with a pH meter. All currents utilized in quantitative calculations were background corrected, assuming the background current was composed of non-faradaic, hydrogen evolution reaction and oxygen reduction reaction currents. Qualitative CV experiments were carried out in a three-electrode cell with a 0.3 cm diameter glassy carbon electrode (0.071 cm^2, CH Instruments), a platinum (Pt) wire counter electrode (CH Instruments) and a Ag/AgCl (3 M NaCl, BASi Inc.) reference electrode. […] Three-electrode cells were filled with 10 mL of solution, and the solution was bubbled with argon at a rate of 50 mL/min for 10 min prior to experiments. The argon bubbling tube was then adjusted such that it provided a blanket of argon gas over the surface of the solution. Then, ten cycles of CV were recorded at a scan rate of 100 mV/s. […] A linear slope to the front of an anodic peak (ma) and cathodic peak (mc) was estimated as a rough indicator of the overall reaction rate of either the forward or backward reaction, combining effects of both reaction kinetics and mass-transport. Achieving a slope ratio (ma/mc) of one, indicates an equally fast forward and backward overall reaction rate.

[1] = 0.45M Li2SO4/0.1M LiOH, pH 12.2
[2] = 0.495M K2SO4/0.01M KOH, pH 11.8
[3] = 0.495M Li2SO4/0.01M LiOH, pH 12.0
[4] = 0.5M K2SO4, pH 8.9, considerable degradation
[5] = 0.9M NaC2H3O2/0.1M NaOH, pH 12.7
[6] = 0.99M LiNO3/0.01M LiOH, pH 11.3
[7] = 0.99M NaC2H3O2/0.01M NaOH, pH 11.8
[8] = 0.99M NaHCO3/0.01M NaOH, pH 8.7
[9] = 0.99M NaNO3/0.01M NaOH, pH 11.6
[10] = 1M KNO3, pH 7.2, significant hydrogen evolution reaction current
[11] = 1M LiCl, pH 3.8, considerable degradation
[12] = 1M LiNO3, pH 6.0, significant hydrogen evolution reaction current
[13] = 1M NaHCO3, pH 8.7, considerable degradation

E° vs. RHE (0.45M K2SO4/0.1M KOH, pH 12.8): −0.50 V
ipa, 10/ipa, 2 (0.45M K2SO4/0.1M KOH, pH 12.8): 0.99
ipc, 10/ipc, 2 (0.45M K2SO4/0.1M KOH, pH 12.8): 0.97
ma/mc (0.45M K2SO4/0.1M KOH, pH 12.8): 0.51
ΔEpp, 10/ΔEpp, 2 (0.45M K2SO4/0.1M KOH, pH 12.8): 1.05
E° vs. RHE [1]: −0.52 V
ipa, 10/ipa, 2 [1]: 1.00
ipc, 10/ipc, 2 [1]: 0.99
ma/mc [1]: 0.46
ΔEpp, 10/ΔEpp, 2 [1]: 1.02
E° vs. RHE [2]: −0.51 V
ipa, 10/ipa, 2 [2]: 0.98
ipc, 10/ipc, 2 [2]: 0.95
ma/mc [2]: 0.64
ΔEpp, 10/ΔEpp, 2 [2]: 1.08
E° vs. RHE [3]: −0.52 V
ipa, 10/ipa, 2 [3]: 0.96
ipc, 10/ipc, 2 [3]: 0.95
ma/mc [3]: 0.55
ΔEpp, 10/ΔEpp, 2 [3]: 1.06
E° vs. RHE [4]: −0.90 ^‡ V
ipc, 10/ipc, 2 [4]: 0.45 ^‡
ma/mc [4]: 0.91 ^‡
ΔEpp, 10/ΔEpp, 2 [4]: 2.16 ^‡
E° vs. RHE (0.5M Li2SO4, pH 6.6, considerable degradation): −0.81 ^‡ V
E° vs. RHE (0.9M KCl/0.1M KOH, pH 12.8): −0.45 V
ipa, 10/ipa, 2 (0.9M KCl/0.1M KOH, pH 12.8): 0.99
ipc, 10/ipc, 2 (0.9M KCl/0.1M KOH, pH 12.8): 0.96
ma/mc (0.9M KCl/0.1M KOH, pH 12.8): 0.46
ΔEpp, 10/ΔEpp, 2 (0.9M KCl/0.1M KOH, pH 12.8): 1.05
E° vs. RHE (0.9M KNO3/0.1M KOH, pH 12.8): −0.50 V
ipa, 10/ipa, 2 (0.9M KNO3/0.1M KOH, pH 12.8): 0.99
ipc, 10/ipc, 2 (0.9M KNO3/0.1M KOH, pH 12.8): 0.98
ma/mc (0.9M KNO3/0.1M KOH, pH 12.8): 0.53
ΔEpp, 10/ΔEpp, 2 (0.9M KNO3/0.1M KOH, pH 12.8): 1.03
E° vs. RHE (0.9M LiCl/0.1M LiOH, pH 12.1): −0.53 V
ipa, 10/ipa, 2 (0.9M LiCl/0.1M LiOH, pH 12.1): 1.00
ipc, 10/ipc, 2 (0.9M LiCl/0.1M LiOH, pH 12.1): 0.99
ma/mc (0.9M LiCl/0.1M LiOH, pH 12.1): 0.51
ΔEpp, 10/ΔEpp, 2 (0.9M LiCl/0.1M LiOH, pH 12.1): 1.04
E° vs. RHE (0.9M LiNO3/0.1M LiOH, pH 12.1): −0.48 V
ipa, 10/ipa, 2 (0.9M LiNO3/0.1M LiOH, pH 12.1): 0.99
ipc, 10/ipc, 2 (0.9M LiNO3/0.1M LiOH, pH 12.1): 0.95
ma/mc (0.9M LiNO3/0.1M LiOH, pH 12.1): 0.51
ΔEpp, 10/ΔEpp, 2 (0.9M LiNO3/0.1M LiOH, pH 12.1): 1.10
E° vs. RHE [5]: −0.51 V
ipa, 10/ipa, 2 [5]: 1.00
ipc, 10/ipc, 2 [5]: 0.97
ma/mc [5]: 0.46
ΔEpp, 10/ΔEpp, 2 [5]: 1.04
E° vs. RHE (0.9M NaHCO3/0.1M NaOH, pH 9.1): −0.53 V
ipa, 10/ipa, 2 (0.9M NaHCO3/0.1M NaOH, pH 9.1): 0.82
ipc, 10/ipc, 2 (0.9M NaHCO3/0.1M NaOH, pH 9.1): 0.78
ma/mc (0.9M NaHCO3/0.1M NaOH, pH 9.1): 1.63
ΔEpp, 10/ΔEpp, 2 (0.9M NaHCO3/0.1M NaOH, pH 9.1): 1.56
E° vs. RHE (0.9M NaNO3/0.1M NaOH, pH 12.5): −0.52 V
ipa, 10/ipa, 2 (0.9M NaNO3/0.1M NaOH, pH 12.5): 0.98
ipc, 10/ipc, 2 (0.9M NaNO3/0.1M NaOH, pH 12.5): 0.98
ma/mc (0.9M NaNO3/0.1M NaOH, pH 12.5): 0.50
ΔEpp, 10/ΔEpp, 2 (0.9M NaNO3/0.1M NaOH, pH 12.5): 1.07
ip,a (0.99 M KCl/0.01 M KOH, across all cycles): 0.12 mA
E° vs. RHE (0.99M KCl/0.01M KOH, pH 11.8): −0.48 V
ipa, 10/ipa, 2 (0.99M KCl/0.01M KOH, pH 11.8): 1.00
ipc, 10/ipc, 2 (0.99M KCl/0.01M KOH, pH 11.8): 0.97
ma/mc (0.99M KCl/0.01M KOH, pH 11.8): 0.59
ΔEpp, 10/ΔEpp, 2 (0.99M KCl/0.01M KOH, pH 11.8): 1.02
E° vs. RHE (0.99M KNO3/0.01M KOH, pH 11.7): −0.52 V
ipa, 10/ipa, 2 (0.99M KNO3/0.01M KOH, pH 11.7): 1.00
ipc, 10/ipc, 2 (0.99M KNO3/0.01M KOH, pH 11.7): 0.97
ma/mc (0.99M KNO3/0.01M KOH, pH 11.7): 0.64
ΔEpp, 10/ΔEpp, 2 (0.99M KNO3/0.01M KOH, pH 11.7): 1.01
E° vs. RHE (0.99M LiCl/0.01M LiOH, pH 11.4): −0.52 V
ipa, 10/ipa, 2 (0.99M LiCl/0.01M LiOH, pH 11.4): 0.99
ipc, 10/ipc, 2 (0.99M LiCl/0.01M LiOH, pH 11.4): 0.96
ma/mc (0.99M LiCl/0.01M LiOH, pH 11.4): 0.63
ΔEpp, 10/ΔEpp, 2 (0.99M LiCl/0.01M LiOH, pH 11.4): 1.05
E° vs. RHE [6]: −0.47 V
ipa, 10/ipa, 2 [6]: 0.98
ipc, 10/ipc, 2 [6]: 0.95
ma/mc [6]: 0.67
ΔEpp, 10/ΔEpp, 2 [6]: 1.08
E° vs. RHE [7]: −0.52 V
ipa, 10/ipa, 2 [7]: 1.01
ipc, 10/ipc, 2 [7]: 0.97
ma/mc [7]: 0.58
ΔEpp, 10/ΔEpp, 2 [7]: 1.06
E° vs. RHE [8]: −0.53 V
ipa, 10/ipa, 2 [8]: 0.06
ipc, 10/ipc, 2 [8]: 0.50
ma/mc [8]: 1.61
ΔEpp, 10/ΔEpp, 2 [8]: 2.90
E° vs. RHE [9]: −0.52 V
ipa, 10/ipa, 2 [9]: 1.00
ipc, 10/ipc, 2 [9]: 0.96
ma/mc [9]: 0.61
ΔEpp, 10/ΔEpp, 2 [9]: 1.04
ip,a (1 M KCl, cycle 2): 0.11 mA
ip,a (1 M KCl, cycle 10): 0.06 mA
E° vs. RHE (1M KCl, pH 5.4): −0.80 V
ipa, 10/ipa, 2 (1M KCl, pH 5.4): 0.57
ipc, 10/ipc, 2 (1M KCl, pH 5.4): 0.56
ma/mc (1M KCl, pH 5.4): 0.75
ΔEpp, 10/ΔEpp, 2 (1M KCl, pH 5.4): 1.85
E° vs. RHE [10]: −0.76 ^† V
ipa, 10/ipa, 2 [10]: 0.91 ^†
ipc, 10/ipc, 2 [10]: 1.01 ^†
ma/mc [10]: 1.51 ^†
ΔEpp, 10/ΔEpp, 2 [10]: 1.04 ^†
peak separation (1 M KOH, 1 M NaOH, or 1 M LiOH): ~150 mV
E° vs. RHE (1M KOH, pH 13.7): −0.48 V
ipa, 10/ipa, 2 (1M KOH, pH 13.7): 0.98
ipc, 10/ipc, 2 (1M KOH, pH 13.7): 0.97
ma/mc (1M KOH, pH 13.7): 0.42
ΔEpp, 10/ΔEpp, 2 (1M KOH, pH 13.7): 1.04
E° vs. RHE [11]: −0.94 ^‡ V
ipc, 10/ipc, 2 [11]: 0.08 ^‡
ma/mc [11]: 0.96 ^‡
ΔEpp, 10/ΔEpp, 2 [11]: 2.95 ^‡
E° vs. RHE [12]: −0.75 ^† V
ipa, 10/ipa, 2 [12]: 0.80 ^†
ipc, 10/ipc, 2 [12]: 0.91 ^†
ma/mc [12]: 1.94 ^†
ΔEpp, 10/ΔEpp, 2 [12]: 1.11 ^†
E° vs. RHE (1M LiOH, pH 12.7): −0.55 V
ipa, 10/ipa, 2 (1M LiOH, pH 12.7): 0.98
ipc, 10/ipc, 2 (1M LiOH, pH 12.7): 0.96
ma/mc (1M LiOH, pH 12.7): 0.45
ΔEpp, 10/ΔEpp, 2 (1M LiOH, pH 12.7): 1.00
E° vs. RHE (1M NaC2H3O2, pH 8.6, two distinct reduction and oxidation peaks): −0.68 * V
E° vs. RHE [13]: −0.53 ^‡ V
ma/mc [13]: 1.51 ^‡
E° vs. RHE (1M NaNO3, pH 6.8): −0.77 V
ipa, 10/ipa, 2 (1M NaNO3, pH 6.8): 0.12
ipc, 10/ipc, 2 (1M NaNO3, pH 6.8): 0.46
ma/mc (1M NaNO3, pH 6.8): 0.82
ΔEpp, 10/ΔEpp, 2 (1M NaNO3, pH 6.8): 1.78
E° vs. RHE (1M NaOH, pH 13.8): −0.48 V
ipa, 10/ipa, 2 (1M NaOH, pH 13.8): 0.99
ipc, 10/ipc, 2 (1M NaOH, pH 13.8): 0.98
ma/mc (1M NaOH, pH 13.8): 0.46
ΔEpp, 10/ΔEpp, 2 (1M NaOH, pH 13.8): 1.01
peak separation (KCl electrolyte with 0.01 M KOH, cycle 2): 230 mV
peak separation (KCl electrolyte with 0.1 M KOH, cycle 2): 200 mV
ratio of charge transferred between the cathodic and anodic scans (all electrolytes with pH≥11.4, within a particular CV cycle): exceeded 0.9
redox potential E° vs. RHE (cases where quinoxaline exhibited stable performance over multiple CV cycles): ≈ −0.5 V
redox potential E° vs. RHE (electrolytes where degradation of quinoxaline was observed, not indicators of the actual redox potential): ≤ −0.75 V
peak separation (sulfate and chloride anions, at 0.01 M OH^−): < 220 mV
peak separation (sulfate and chloride anions, at 0.1 M OH^−): < 200 mV
SMILES: c1ccc2nccnc2c1 [quinoxaline]
